Literature values in patent US8753679B2, “Capsule formulation of pirfenidone and pharmaceutically acceptable excipients” (Intermune, Inc., priority 2005, dated 2014).
Where two headings read alike, the source gives them in different places.

Assays:
[1] = system: pulmonary fibrosis; settings: after 4 to 6 months on oral pirfenidone
[2] = single oral dose 400 mg as four 100 mg capsules of 100% pirfenidone, 10 healthy adult males, plasma
[3] = 200 mg single dose on day 1, coated tablet with excipients, 15 patients, serum
[4] = system: human mesenchymal-like cells (including lung fibroblasts, skin fibroblasts, prostate stromal cells, and renal mesangial cells)
[5] = system: benign prostate hypertrophy; settings: oral pirfenidone, older men with clinically advanced BPH
[6] = oral 400 mg, capsule of 100% pirfenidone

For `Cc1ccc(=O)n(-c2ccccc2)c1` [Pirfenidone, 5-methyl-1-phenyl-2-(1H)-pyridone], the “lung function (pulmonary function tests, VC, DLCO)” value [1] is listed as “inhibition or blocking of further deterioration in lung function”, the AUC6hr [2] is listed as 20.8±10.0 μg/mL-hr and the T1/2 [2] is listed as 2.2 ± 0.6 h. For the same molecule, the Tmax [2] was 54 ± 18 min, the Cmax ([2]; gas chromatography) was 6.3 ± 2.5 µg/mL and the AUC4hr [3] was 7.3 ± 1.6 µg·h/mL. The T1/2 [3] was 3.5 ± 2.2 h, the Tmax [3] was 1.8 ± 1.1 h and the Cmax ([3]; HPLC) was 2.7 ± 0.7 µg/mL. For the same molecule, the “effective levels relative to levels exerting pharmacologically toxic effects on the cells” value ([4]; graded concentrations in cell culture media) was “ten to twenty times lower”, the “effect on excessive cell proliferation induced by cytokine growth factors (TGF-β1, bFGF, PDGF, and EGF)” value ([4]; in vitro cell cultures) was “pharmacologic inhibition” and the “response of patients based on objective criteria” value [5] was “functional improvement”. The T1/2 ([6]; ten human volunteers) was 2.87 ± 0.22 h, the “time at which maximum serum pirfenidone level was reached” value ([6]; ten human volunteers (FIG. 3)) was “between one and three hours” and the observed side effects (after oral administration, drowsiness, gastric nausea or photosensitivity rash) was “relatively mild”. The serious adverse reactions (clinical investigations) was “No serious adverse reactions”.
